This is an account of results in US5198445A, “Composition and use of substituted 3-thio-2-propynenitriles as industrial antimicrobials” (The Dow Chemical Company, priority 1992, dated 1993).

The test system of data set [1] is Penicillium chrysogenum (Pc). The experiment in a line: MIC in malt yeast agar, Penicillium chrysogenum. Format: cell-based, Penicillium chrysogenum ATCC 9480. The note with it: read-out: Minimum Inhibitory Concentration, Pc. How it is done: (§1) The minimum inhibitory concentration (MIC) for the compounds listed in Table I is determined for 9 bacteria, using nutrient agar, and 7 yeast and fungi, using malt yeast agar. A one percent solution of the test compound is prepared in a mixture of acetone and water. Nutrient agar is prepared at pH 6.8, representing a neutral medium, and at pH 8.2, representing an alkaline medium. The nutrient agars are prepared by adding 23 g of nutrient agar to one-liter of deionized water. In addition, the alkaline medium is prepared by adjusting a 0.04M solution of N-[tris-(hydroxymethyl)methyl]-glycine buffered deionized water with concentrated sodium hydroxide to a pH of […]. Malt yeast agar is prepared by adding 3 g yeast extract and 45 g malt agar per liter of deionized water. The specific agar is dispensed in 30 ml aliquots into 25×200 mm test tubes, capped and autoclaved for 15 minutes at 115° C. The test tubes containing the agar are cooled in a water bath until the temperature of the agar is 48° C. Then, an appropriate amount of the one percent solution of the test compound is added (except in the controls where no compound is added) to the respective test tubes so that the final concentrations are 500, 250, 100, 50, 25, 10, 5, 2.5, 1.0 and zero parts per million of the test compound in the agar, thus having a known concentration of test compound dispersed therein. The contents of the test tubes are then transferred to respective petri plates. After drying for 24 hours, the petri plates containing nutrient agar are inoculated with bacteria and those containing malt yeast agar are inoculated with yeast and fungi.
The inoculation with the yeast and fungi is accomplished as follows. Cultures of yeast and fungi are incubated for seven days on malt yeast agar at 30° C. These cultures are used to prepare suspensions by the following procedure. A suspension of each organism is prepared by adding 10 ml of sterile saline and 10 microliters of octylphenoxy polyethoxy ethanol (TRITON® X-100, a trademark of Rohm & Haas Company) to the agar slant of yeast or fungi. The sterile saline/octylphenoxy polyethoxy ethanol solution is then agitated with a sterile swab to suspend the microorganism grown on the slant. Each resulting suspension is diluted into sterile saline (1 part suspension: 9 parts sterile saline). Aliquots of these dilutions are placed in individual wells of Steer's Replicator and petri plates inoculated as previously described. The petri plates are incubated at 30° C. and read after 48 hours for yeast and 72 hours for fungi.
(§2) Table II lists the bacteria, yeast and fungi used in the MIC test described above along with their respective American Type Culture Collection (ATCC) identification numbers.
(§3) The following MIC and MEC antimicrobial tests, whose results are shown in Tables XIII-XVII, are performed using the same methods as described hereinabove.

The test system of data set [2] is Pseudomonas aeruginosa (Pa). The experiment in a line: MIC in nutrient agar, Pseudomonas aeruginosa. The format is cell-based, Pseudomonas aeruginosa ATCC 10145. How it is done: as §1
The inoculation with bacteria is accomplished by using the following procedure. Twenty-four hour-cultures of each of the bacteria are prepared by incubating the respective bacteria in tubes containing nutrient broth for 24 hours at 30° C. in a shaker. Dilutions of each of the 24 hour-cultures are made so that nine separate suspensions (one for each of the nine test bacteria) are made, each containing 10^8 colony forming units (CFU) per ml of suspension of a particular bacteria. Aliquots of 0.3 ml of each of the bacterial suspensions are used to fill the individual wells of Steer's Replicator. For each microbial suspension, 0.3 ml was used to fill three wells (i.e., three wells of 0.3 ml each) so that for the nine different bacteria, 27 wells are filled. The Steer's Replicator is then used to inoculate both the neutral and alkaline pH nutrient agar petri plates.
The inoculated petri plates are incubated at 30° C. for 48 hours and then read to determine if the test compound which is incorporated into the agar prevented growth of the respective bacteria.
as §2, §3

Data set [3] in a line: Stability of 3-thio-2-propynenitriles at pH 7 or above / in basic solution. The note with it: basic solution / pH of 7 or above. The format is physicochemical. From the text:
It has also been discovered that the compounds of the present invention may degrade at a pH of 7 or above over an extended time period to compounds which are less antimicrobially active than the original compounds of the present invention.

The test system of data set [4] is mixture of the bacterial organisms listed in Table II. The data set is described as follows: MEC in paint formulation after 1 month storage. The note with it: 730 h, pH between 7 and 9, after 1 month storage at room temperature. Format: cell-based, bacteria listed in Table II. How it is done:
(§4) The formulations are separated into 50 g aliquots and placed in sterile bottles. An appropriate amount of a fresh one percent stock solution of the test compound in acetone-water is added to achieve the desired final concentrations. A small portion of each of the test formulations is streaked onto Tryptic Soy Agar (TSA) petri plates using sterile cotton swabs to ensure that the formulations are sterile. If the formulation is sterile, then it is inoculated with 0.1 ml of a mixture of equal aliquots of the 24 hour cultures of each of the bacterial organisms listed in Table II. The test formulations are then incubated at 30° C. After 24 hours, each sample is streaked onto a TSA petri plate using a sterile swab. All plates are then incubated at 30° C. for 48 hours and then rated for microbial growth using the rating system listed in Table VIII. Samples with a rating of 3 or less are reinoculated as described in the procedure for the first inoculation. Samples with a rating of 4 or greater are not reinoculated but after another 24 hours are restreaked on TSA agar.
(§5) The normal interpretation of the results is that a concentration of the antimicrobial being tested is considered to be effective if no ratings greater than a 3 are observed throughout the 10 challenges. […]

For data set [5] the test system is unchanged. The experiment in a line: MEC in tape joint formulation after 3 months storage. The note with it: 2190 h, pH between 5 and 7, after 3 months storage at room temperature. The format is cell-based, bacteria listed in Table II. How it is done: as §4, §5
Setting [6] is: pH 8.2, read-out: Minimum Inhibitory Concentration, Pa.

Converted amounts (≈) assume the structure as drawn. Where two headings read alike, the source gives them in different places.

Regarding `CCSC#CC#N` [B, 3-ethylthio-2-propynenitrile], the MIC in data set [1] (malt yeast agar) was < 1 µg/mL.
As to `N#CC#CSC1CCCC1` [C, 3-cyclopentylthio-2-propynenitrile], the MIC in data set [1] (malt yeast agar) is < 1 µg/mL.
Consider `CSC#CC#N` [Compound A, 3-methylthio-2-propynenitrile], for which the MIC in data set [2] (setting [6]) is 2.5 µg/mL (≈ 25.7 µM); in data set [1] (malt yeast agar) it was 0.25 µg/mL (≈ 2.57 µM). Further, the stability entry in data set [3] is on record as “observed to decompose in a basic solution to several compounds”. The minimal effective concentration in data set [4] and in data set [5] was > 50 µg/mL each time.
For `CSC=C(Cl)C#N` [Compound G, 2-chloro-3-(methylthio)-2-propenenitrile], the MIC in data set [2] (pH 6.8, read-out: Minimum Inhibitory Concentration, Pa) worked out at 50 µg/mL (≈ 374 µM); in data set [2] (setting [6]) it was 5 µg/mL (≈ 37.4 µM); in data set [1], 50 µg/mL (≈ 374 µM). The minimal effective concentration in data set [5] is > 50 µg/mL.
In the case of `N#CC#CSc1ccc(Cl)cc1` [D, 3-(4-chlorophenylthio)-2-propynenitrile], the MIC in data set [1] (malt yeast agar) was < 1 µg/mL.
